Measured values as given in BindingDB's records for doi:10.1021/jm950817g (Institute, 1996).

assay: Activity was evaluated by inhibition of the binding of 1 nM [3H]DPDPE at Opioid receptor delta 1 binding site

`CNC1CCC2(C)CC1(CO)Cc1ccc(O)cc12` (stereo unspecified) [9-Hydroxymethyl-1-methyl-10-methylamino-tricyclo[7.3.1.0*2,7*]trideca-2,4,6-trien-4-ol] and `CC12CCC(N)C(CO)(Cc3ccc(O)cc31)C2` (stereo unspecified) [10-Amino-9-hydroxymethyl-1-methyl-tricyclo[7.3.1.0*2,7*]trideca-2,4,6-trien-4-ol] cannot be ordered by Ki: greater than 1000 µM for the first, greater than 1000 µM for the second.

First: CN(C)C1CCC2(C)CC1(CO)Cc1ccc(O)cc12 (stereo unspecified) [10-Dimethylamino-9-hydroxymethyl-1-methyl-tricyclo[7.3.1.0*2,7*]trideca-2,4,6-trien-4-ol]
Second: COCC12Cc3ccc(O)cc3C(C)(CCC1N(C)C)C2 (stereo unspecified) [10-Dimethylamino-9-methoxymethyl-1-methyl-tricyclo[7.3.1.0*2,7*]trideca-2,4,6-trien-4-ol]
The Ki of the first is higher: greater than 1000 µM for the first, 1.4 µM for the second.

Compared with `CN1CNC2CCC3(C)CC2(Cc2ccc(O)cc23)C1` (stereo unspecified) [3,9-dimethyl-3,5-diazatetracyclo[7.7.1.01,6.010,15]heptadeca-10,12,14-trien-12-ol], `CN1CC23Cc4ccc(O)cc4C(C)(CCC12)C3` (stereo unspecified) [9,13-dimethyl-13-azatetracyclo[7.5.1.01,12.03,8]pentadeca-3,5,7-trien-6-ol] is higher in Ki: 0.863 µM for the first, greater than 10 µM for the second. The first binds more tightly here.

`COC[C@]12Cc3ccc(O)cc3[C@](C)(CCCN1C)C2` [(1R,9R)-9-Methoxymethyl-1,10-dimethyl-10-aza-tricyclo[7.4.1.0*2,7*]tetradeca-2(7),3,5-trien-4-ol] and `COC[C@]12Cc3ccc(O)cc3[C@](C)(CCc3nnnn31)C2` [1-methoxymethyl-9-methyl-(1S,9R)-2,3,4,5-tetraazatetracyclo[7.7.1.02,6.010,15]heptadeca-3,5,10(15),11,13-pentaen-12-ol] cannot be ordered by Ki: greater than 5 µM for the first, greater than 10 µM for the second.

Going from `CN(C)C1CCC2(C)CC1(C)Cc1ccc(O)cc12` (stereo unspecified) [10-Dimethylamino-1,9-dimethyl-tricyclo[7.3.1.0*2,7*]trideca-2,4,6-trien-4-ol] to `CNCC12Cc3ccc(O)cc3C(C)(CCC1N)C2` (stereo unspecified) [10-Amino-1-methyl-9-methylaminomethyl-tricyclo[7.3.1.0*2,7*]trideca-2,4,6-trien-4-ol], the Ki falls from 10 µM to 0.459 µM (22-fold).

`COCC12Cc3ccc(O)cc3C(C)(CCC1N)C2` (stereo unspecified) [10-Amino-9-methoxymethyl-1-methyl-tricyclo[7.3.1.0*2,7*]trideca-2,4,6-trien-4-ol] gave a Ki of 0.467 µM.
